{"source": "patent US20210186962A1", "about": "“METHODS OF SCHIZOPHRENIA TREATMENT” (INTRA-CELLULAR THERAPIES, INC., priority 2019, published 2021)", "key": {"[1]": {"system": "elderly subjects with dementia", "conditions": "cited from earlier work"}, "[2]": {"system": "adult patients with schizophrenia", "experiment": "Pooled short-term (4- to 6-week) placebo-controlled schizophrenia trials, safety", "assay_type": "in vivo, human", "conditions": "for Somnolence/Sedation, adverse reaction incidence: placebo 10%, 4-methylbenzenesulfonate", "description": "Of these patients, 811 participated in short-term (4- to 6-week), placebo-controlled trials with doses ranging from 14 to 84 mg/day.\nIn the 4- to 6-week trials, data were collected using the Simpson Angus Scale (SAS) for EPS (total score ranges from 0 to 40), the Barnes Akathisia Rating Scale (BARS) for akathisia (total score ranges from 0 to 14), and the Abnormal Involuntary Movement Scale (AIMS) for dyskinesia (total score ranges from 0 to 28)."}, "[3]": {"system": "patients with stable schizophrenia", "experiment": "Uncontrolled open-label trial for up to 1 year", "assay_type": "in vivo, human", "from_the_text": "A total of 4.7% of patients with normal hemoglobin A1c (<6.5%) at baseline developed elevated levels (>6.5%) post-baseline."}, "[4]": {"system": "patients with schizophrenia", "experiment": "QTcF four-arm crossover study", "assay_type": "in vivo, human", "description": "QTcF interval was evaluated in a randomized, placebo- and active-(moxifloxacin 400 mg) controlled, four-arm crossover study utilizing concentration-QTc effect modeling in 33 patients with schizophrenia."}, "[5]": {"system": "adult patients with a diagnosis of schizophrenia", "experiment": "Study 1 (NCT01499563), four-week placebo-controlled, PANSS total score", "assay_type": "in vivo, human", "from_the_text": "Study 1 (NCT01499563) was a four-week, randomized, double-blind, placebo-controlled, multi-center study in adult patients with a diagnosis of schizophrenia according to the DSM-IV-TR criteria. The primary efficacy measure was the Positive and Negative Syndrome Scale (PANSS) total score. The PANSS is a 30-item scale used to measure symptoms of schizophrenia. Each item is rated by a clinician on a seven-point scale. A score of 1 indicates the absence of symptoms, and a score of 7 indicates extremely severe symptoms. The PANSS total score may range from 30 to 210 with higher scores reflecting greater overall symptom severity.\nMedian age was 42 years (range 20 to 55 years). 17% were female, 19% were Caucasian, and 78% were African American."}, "[6]": {"system": "adult patients with a diagnosis of schizophrenia", "experiment": "Study 2 (NCT02282761), four-week placebo-controlled, PANSS total score", "assay_type": "in vivo, human", "from_the_text": "Study 2 (NCT02282761) was a four-week, randomized, double-blind, placebo-controlled, multi-center study in adult patients with a diagnosis of schizophrenia according to the DSM-5 criteria. The primary efficacy measure was the PANSS total score. […] Median age was 44 years (range 19 to 60 years); 23% were female, 26% were Caucasian and 66% were African American."}, "[7]": {"conditions": "4- to 6-week trials, 60 mg tosylate daily, N = 406, placebo 1%"}, "[8]": {"conditions": "4- to 6-week trials, 60 mg tosylate daily, N = 406, placebo 2%"}}}
{"compound": "Cc1cc2c(s1)Nc1ccccc1N=C2N1CCN(C)CC1", "note": "[olanzapine]", "values": [{"measurement": "incidence of stroke and transient ischemic attack, including fatal stroke, versus placebo", "setting": "[1]", "result": "higher incidence"}]}
{"compound": "CN1CCN2c3c(cccc31)[C@@H]1CN(CCCC(=O)c3ccc(F)cc3)CC[C@@H]12.Cc1ccc(S(=O)(=O)O)cc1", "note": "[Lumateperone tosylate, 4-((6bR,10aS)-3-methyl-2,3,6b,9,10,10a-hexahydro-1H,7H-pyrido[3′,4′: 4,5]pyrrolo[1,2,3-de]quinoxalin-8-yl)-1-(4-fluoro-phenyl)-butan-1-one 4-methylbenzenesulfonate]", "values": [{"measurement": "frequency of reported events related to extrapyramidal symptoms (EPS)", "setting": "[2]; 4- to 6-week placebo-controlled studies, placebo 6.3%", "result": 6.7, "unit": "%"}, {"measurement": "Creatine Phosphokinase Increased, adverse reaction incidence", "setting": "[2]; [7]", "result": 4, "unit": "%"}, {"measurement": "Fatigue, adverse reaction incidence", "setting": "[2]; [7]", "result": 3, "unit": "%"}, {"measurement": "Hepatic Enzymes Increased (ALT, AST, “hepatic enzymes” increased, or liver function tests abnormal), adverse reaction incidence", "setting": "[2]; [7]", "result": 2, "unit": "%"}, {"measurement": "Dry Mouth, adverse reaction incidence", "setting": "[2]; [8]", "result": 6, "unit": "%"}, {"measurement": "Vomiting, adverse reaction incidence", "setting": "[2]; [8]", "result": 3, "unit": "%"}, {"measurement": "Dizziness (dizziness, dizziness postural), adverse reaction incidence", "setting": "[2]; 4- to 6-week trials, 60 mg tosylate daily, N = 406, placebo 3%", "result": 5, "unit": "%"}, {"measurement": "Nausea, adverse reaction incidence", "setting": "[2]; 4- to 6-week trials, 60 mg tosylate daily, N = 406, placebo 5%", "result": 9, "unit": "%"}, {"measurement": "Somnolence/Sedation, adverse reaction incidence", "setting": "[2]; 4- to 6-week trials, 60 mg tosylate daily, N = 406", "result": 24, "unit": "%"}, {"measurement": "Somnolence/Sedation, adverse reaction incidence", "setting": "[2]; 4- to 6-week trials, 60 mg tosylate daily, N = 406, listed as lumateperone tosylate", "result": 24, "unit": "%"}, {"measurement": "mean change from baseline, Barnes Akathisia Rating Scale (BARS)", "setting": "[2]; 4- to 6-week trials, score range 0 to 14, placebo 0", "result": "−0.1"}, {"measurement": "mean change from baseline, Abnormal Involuntary Movement Scale (AIMS)", "setting": "[2]; 4- to 6-week trials, score range 0 to 28, placebo 0", "result": 0.1}, {"measurement": "mean change from baseline, Simpson Angus Scale (SAS)", "setting": "[2]; 4- to 6-week trials, score range 0 to 40, placebo 0", "result": 0.1}, {"measurement": "frequency of orthostatic hypotension", "setting": "[2]; clinical trials, placebo 0%", "result": 0.7, "unit": "%"}, {"measurement": "rate of syncope", "setting": "[2]; clinical trials, placebo 0.2%", "result": 0.2, "unit": "%"}, {"measurement": "rate of any single adverse reaction leading to discontinuation", "setting": "[2]; none occurred at >2%", "result": "≤ 2", "unit": "%"}, {"measurement": "mean changes from baseline and proportion of subjects with increase in weight ≥7% from baseline to end of study, versus placebo", "setting": "[2]; pooled placebo-controlled trials", "result": "similar"}, {"measurement": "mean change in body weight", "setting": "[3]; Day 175, SD 5.6", "result": "approximately −2 kg"}, {"measurement": "mean change in body weight", "setting": "[3]; Day 350, SD 7.4", "result": "approximately −3.2 kg"}, {"measurement": "patients with normal hemoglobin A1c (<6.5%) at baseline who developed elevated levels (>6.5%) post-baseline", "setting": "[3]; up to 1 year", "result": 4.7, "unit": "%"}, {"measurement": "placebo-corrected change from baseline QTcF (90% two-sided upper confidence interval)", "setting": "[4]; 42 mg orally once daily for 5 days", "result": "4.9 (8.9) ms"}, {"measurement": "placebo-corrected change from baseline QTcF (90% two-sided upper confidence interval)", "setting": "[4]; supratherapeutic dose 126 mg orally once daily for 5 days", "result": "15.8 (19.8) ms"}, {"measurement": "reduction from baseline to Day 28 in PANSS total score compared to placebo", "setting": "[5]; 42 mg", "result": "statistically significant reduction"}, {"measurement": "PANSS Total, Placebo-subtracted Difference (95% CI)", "setting": "[5]; 42 mg, Day 28, CI −10.5, −1.1", "result": "−5.8"}, {"measurement": "PANSS Total, LS Mean Change from Baseline (SE)", "setting": "[5]; 42 mg, Day 28, N 84, placebo −7.4 (1.7)", "result": "−13.2 (1.7)"}, {"measurement": "treatment effect on PANSS total score vs. placebo", "setting": "[5]; 84 mg (two times the recommended daily dose)", "result": "not statistically significant"}, {"measurement": "treatment effect on PANSS total score vs. placebo", "setting": "[6]; 28 mg (two-thirds of the recommended daily dose)", "result": "not statistically significant"}, {"measurement": "reduction from baseline to Day 28 in PANSS total score compared to placebo", "setting": "[6]; 42 mg", "result": "statistically significant reduction"}, {"measurement": "PANSS Total, Placebo-subtracted Difference (95% CI)", "setting": "[6]; 42 mg, Day 28, CI −7.8, −0.6", "result": "−4.2"}, {"measurement": "PANSS Total, LS Mean Change from Baseline (SE)", "setting": "[6]; 42 mg, Day 28, N 150, placebo −10.3 (1.3)", "result": "−14.5 (1.3)"}]}
{"compound": "Cc1nc2n(c(=O)c1CCN1CCC(c3noc4cc(F)ccc34)CC1)CCCC2", "note": "[risperidone]", "values": [{"measurement": "incidence of stroke and transient ischemic attack, including fatal stroke, versus placebo", "setting": "[1]", "result": "higher incidence"}]}
{"compound": "O=C1CCc2ccc(OCCCCN3CCN(c4cccc(Cl)c4Cl)CC3)cc2N1", "note": "[aripiprazole]", "values": [{"measurement": "incidence of stroke and transient ischemic attack, including fatal stroke, versus placebo", "setting": "[1]", "result": "higher incidence"}]}
